Source: patent US9738634B2, “Heterocyclic amide compound and herbicide” (SYNGENTA PARTICIPATIONS AG, priority 2013, dated 2017)

How the values were obtained:
Type in all cases: in vivo
corn = experiment: Test Example 3: soil treatment, effect on crop; c: corn; details: soil treatment, treatment dosage 320 g/ha
Outline: (§1)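 Crop and weed responses were judged three weeks after a uniform surface spray of the water-diluted emulsion at the given g/ha rate. Seeds sat beneath about 1.5 cm of sterilized diluvial soil, and boxes stood in a greenhouse at 25 to 30° C.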

chickweed = experiment: Test Example 3: weedkilling efficacy through soil treatment; N: chickweed; details: soil treatment, treatment dosage 320 g/ha
Outline: as §1

wild oat = experiment: Test Example 3: weedkilling efficacy through soil treatment; G: wild oat; details: soil treatment, treatment dosage 320 g/ha
Outline: as §1

bulrush [1] = experiment: Test Example 1: weedkilling efficacy, preemergent weed treatment in the submerged state; B: bulrush; details: treatment dosage 320 g/ha
Outline: (§2)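 Pre-emergence application onto floodwater (4 cm, alluvial soil) on the day of sowing, dose expressed as g/ha from diluted emulsion formulation. Weeds sown with 2.5-leaf transplanted rice as crop; plants held at 25–30 °C in greenhouse and scored against assessment criteria after 3 weeks.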

transplanted rice = experiment: Test Example 1: preemergent weed treatment in the submerged state, effect on crop; a: transplanted rice; details: treatment dosage 320 g/ha
Outline: as §2

rapeseed = experiment: Test Example 3: soil treatment, effect on crop; g: rapeseed; details: soil treatment, treatment dosage 320 g/ha
Source text: (§3) Weedkilling Efficacy Test Through Soil Treatment
(§4) Sterilized diluvial soil was introduced into 21 cm long, 13 cm wide, 7 cm deep plastic boxes, and seeds of crabgrass, green foxtail, barnyard grass, wild oat, black-grass, Italian ryegrass, common wind-grass, Indian mallow, redroot pigweed, fig-leafed goosefoot, chickweed, catchweed, birds-eye speedwell, corn, soybean, rice, wheat, beet and rapeseed were each spot-sown, and covered with about 1.5 cm of soil. Next, emulsions of compounds of the present invention prepared according to compounding example 2 were diluted with water to give the specified dosages, and applied uniformly onto the soil surface with a small sprayer. The plants were grown by placing the plastic boxes in a greenhouse at 25 to 30° C., and 3 weeks after the pesticide treatment the effect on each type of plant was investigated on the basis of the assessment criteria of test example 1.
(§5) A: barnyard grass, B: bulrush, C: oval-leafed pondweed, D: crabgrass, E: green foxtail, F: barnyard grass, G: wild oat, H: black-grass, I: Italian ryegrass, J: common wind-grass, K: Indian mallow, L: redroot pigweed, M: fig-leafed goosefoot, N: chickweed, O: catchweed, p: birds-eye speedwell, a: transplanted rice, b: directly sown rice, c: corn, d: soybean, e: wheat, f: beet, g: rapeseed
(§6) Further, pesticide dosage (g/ha) indicates the concentration regulated such that treatment was with only the stated number of grams (g), when calculated per hectare (ha).

birds-eye speedwell = experiment: Test Example 3: weedkilling efficacy through soil treatment; p: birds-eye speedwell; details: soil treatment, treatment dosage 320 g/ha
Outline: as §1

oval-leafed pondweed [2] = experiment: Test Example 2: weedkilling efficacy, growth period weed treatment in the submerged state; C: oval-leafed pondweed; details: treatment dosage 320 g/ha
Outline: (§7)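 Weeds treated at the 1-2 leaf stage by application of diluted emulsion onto floodwater (4 cm depth, alluvial soil) at specified g/ha. Grown in greenhouse at 25 to 30° C; herbicidal effect rated three weeks after treatment.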

Indian mallow = experiment: Test Example 3: weedkilling efficacy through soil treatment; K: Indian mallow; details: soil treatment, treatment dosage 320 g/ha
Outline: as §1

barnyard grass [3] = experiment: Test Example 3: weedkilling efficacy through soil treatment; F: barnyard grass; details: soil treatment, treatment dosage 320 g/ha
Source text: as §3, §4, §5, §6

redroot pigweed = experiment: Test Example 3: weedkilling efficacy through soil treatment; L: redroot pigweed; details: soil treatment, treatment dosage 320 g/ha
Outline: as §1

beet = experiment: Test Example 3: soil treatment, effect on crop; f: beet; details: soil treatment, treatment dosage 320 g/ha
Outline: as §1

crabgrass = experiment: Test Example 3: weedkilling efficacy through soil treatment; D: crabgrass; details: soil treatment, treatment dosage 320 g/ha
Outline: as §1

common wind-grass = experiment: Test Example 3: weedkilling efficacy through soil treatment; J: common wind-grass; details: soil treatment, treatment dosage 320 g/ha
Source text: as §3, §4, §5, §6

bulrush [4] = experiment: Test Example 2: weedkilling efficacy, growth period weed treatment in the submerged state; B: bulrush; details: treatment dosage 320 g/ha
Outline: as §7

barnyard grass [5] = experiment: Test Example 1: weedkilling efficacy, preemergent weed treatment in the submerged state; A: barnyard grass; details: treatment dosage 320 g/ha
Outline: as §2

green foxtail = experiment: Test Example 3: weedkilling efficacy through soil treatment; E: green foxtail; details: soil treatment, treatment dosage 320 g/ha
Outline: as §1

barnyard grass [6] = experiment: Test Example 2: weedkilling efficacy, growth period weed treatment in the submerged state; A: barnyard grass; details: treatment dosage 320 g/ha
Outline: as §7

soybean = experiment: Test Example 3: soil treatment, effect on crop; d: soybean; details: soil treatment, treatment dosage 320 g/ha
Outline: as §1

Italian ryegrass = experiment: Test Example 3: weedkilling efficacy through soil treatment; I: Italian ryegrass; details: soil treatment, treatment dosage 320 g/ha
Outline: as §1

black-grass = experiment: Test Example 3: weedkilling efficacy through soil treatment; H: black-grass; details: soil treatment, treatment dosage 320 g/ha
Outline: as §1

directly sown rice = experiment: Test Example 3: soil treatment, effect on crop; b: directly sown rice; details: soil treatment, treatment dosage 320 g/ha
Outline: as §1

wheat = experiment: Test Example 3: soil treatment, effect on crop; e: wheat; details: soil treatment, treatment dosage 320 g/ha
Outline: as §1

oval-leafed pondweed [7] = experiment: Test Example 1: weedkilling efficacy, preemergent weed treatment in the submerged state; C: oval-leafed pondweed; details: treatment dosage 320 g/ha
Outline: as §2

fig-leafed goosefoot = experiment: Test Example 3: weedkilling efficacy through soil treatment; M: fig-leafed goosefoot; details: soil treatment, treatment dosage 320 g/ha
Outline: as §1

Row | SMILES | c: corn, effect on crop grade (corn) | N: chickweed, weedkilling efficacy grade (chickweed) | G: wild oat, weedkilling efficacy grade (wild oat) | B: bulrush, weed kill grade (bulrush [1]) | a: transplanted rice, effect on crop grade (transplanted rice) | g: rapeseed, effect on crop grade (rapeseed) | P: birds-eye speedwell, weedkilling efficacy grade (birds-eye speedwell) | C (oval-leafed pondweed) weedkilling efficacy grade (oval-leafed pondweed [2]) | K: Indian mallow, weedkilling efficacy grade (Indian mallow) | F: barnyard grass, weedkilling efficacy grade (barnyard grass [3]) | L: redroot pigweed, weedkilling efficacy grade (redroot pigweed) | f: beet, effect on crop grade (beet) | D: crabgrass, weedkilling efficacy grade (crabgrass) | J: common wind-grass, weedkilling efficacy grade (common wind-grass) | E: green foxtail, weedkilling efficacy grade (green foxtail) | d: soybean, effect on crop grade (soybean) | I: Italian ryegrass, weedkilling efficacy grade (Italian ryegrass) | H: black-grass, weedkilling efficacy grade (black-grass) | b: directly sown rice, effect on crop grade (directly sown rice) | e: wheat, effect on crop grade (wheat) | further results
1 | CC(C)(C(=O)Nc1ccc2ccccc2n1)N1COCN(c2ccccc2)C1=O [A-1-24] | 0 (weed kill ratio 5% or less (practically no effect)) | 0 (weed kill ratio 5% or less (practically no effect)) | 0 (weed kill ratio 5% or less (practically no effect)) | 5 (weed kill ratio 90% or more, (practically complete withering)) | 0 (weed kill ratio 5% or less (practically no effect)) | 0 (weed kill ratio 5% or less (practically no effect)) | 4 (weed kill ratio 70% or more, less than 90%) | 5 (weed kill ratio 90% or more, (practically complete withering)) | 0 (weed kill ratio 5% or less (practically no effect)) | 2 (weed kill ratio 20% or more, less than 40%) | 0 (weed kill ratio 5% or less (practically no effect)) | 0 (weed kill ratio 5% or less (practically no effect)) | 3 (weed kill ratio 40% or more, less than 70%) | 4 (weed kill ratio 70% or more, less than 90%) | 3 (weed kill ratio 40% or more, less than 70%) | 0 (weed kill ratio 5% or less (practically no effect)) | 3 (weed kill ratio 40% or more, less than 70%) | 1 (weed kill ratio 5% or more, less than 20%) | 0 (weed kill ratio 5% or less (practically no effect)) | 0 (weed kill ratio 5% or less (practically no effect)) | B (bulrush) weedkilling efficacy grade (bulrush [4]): 5 (weed kill ratio 90% or more, (practically complete withering)); A: barnyard grass, weed kill grade (barnyard grass [5]): 5 (weed kill ratio 90% or more, (practically complete withering)); A (barnyard grass) weedkilling efficacy grade (barnyard grass [6]): 4 (weed kill ratio 70% or more, less than 90%); C: oval-leafed pondweed, weed kill grade (oval-leafed pondweed [7]): 5 (weed kill ratio 90% or more, (practically complete withering))
2 | CC(C)(C(=O)Nc1cc(I)ccn1)N1COCN(c2ccccc2)C1=O [A-2-10] | 0 (weed kill ratio 5% or less (practically no effect)) | 3 (weed kill ratio 40% or more, less than 70%) | 2 (weed kill ratio 20% or more, less than 40%) | 5 (weed kill ratio 90% or more, (practically complete withering)) | 1 (weed kill ratio 5% or more, less than 20%) | 3 (weed kill ratio 40% or more, less than 70%) | 4 (weed kill ratio 70% or more, less than 90%) | 5 (weed kill ratio 90% or more, (practically complete withering)) | 0 (weed kill ratio 5% or less (practically no effect)) | 5 (weed kill ratio 90% or more, (practically complete withering)) | 1 (weed kill ratio 5% or more, less than 20%) | 3 (weed kill ratio 40% or more, less than 70%) | 5 (weed kill ratio 90% or more, (practically complete withering)) | 5 (weed kill ratio 90% or more, (practically complete withering)) | 5 (weed kill ratio 90% or more, (practically complete withering)) | 0 (weed kill ratio 5% or less (practically no effect)) | 5 (weed kill ratio 90% or more, (practically complete withering)) | 5 (weed kill ratio 90% or more, (practically complete withering)) | 4 (weed kill ratio 70% or more, less than 90%) | 0 (weed kill ratio 5% or less (practically no effect)) | M: fig-leafed goosefoot, weedkilling efficacy grade (fig-leafed goosefoot): 4 (weed kill ratio 70% or more, less than 90%); B (bulrush) weedkilling efficacy grade (bulrush [4]): 5 (weed kill ratio 90% or more, (practically complete withering)); A: barnyard grass, weed kill grade (barnyard grass [5]): 5 (weed kill ratio 90% or more, (practically complete withering)); A (barnyard grass) weedkilling efficacy grade (barnyard grass [6]): 5 (weed kill ratio 90% or more, (practically complete withering)); C: oval-leafed pondweed, weed kill grade (oval-leafed pondweed [7]): 5 (weed kill ratio 90% or more, (practically complete withering))
3 | CC(C)(C(=O)Nc1cc(Cl)cc(Cl)n1)N1COCN(c2ccccc2)C1=S [A-2-18, N-(4,6-dichloropyridin-2-yl)-2-methyl-2-(5-phenyl-4-thioxo-1,3,5-oxadiazinan-3-yl) propionamide] | 1 (weed kill ratio 5% or more, less than 20%) | 3 (weed kill ratio 40% or more, less than 70%) | 3 (weed kill ratio 40% or more, less than 70%) |  |  | 3 (weed kill ratio 40% or more, less than 70%) | 5 (weed kill ratio 90% or more, (practically complete withering)) |  | 2 (weed kill ratio 20% or more, less than 40%) | 5 (weed kill ratio 90% or more, (practically complete withering)) | 3 (weed kill ratio 40% or more, less than 70%) | 3 (weed kill ratio 40% or more, less than 70%) | 5 (weed kill ratio 90% or more, (practically complete withering)) | 5 (weed kill ratio 90% or more, (practically complete withering)) | 5 (weed kill ratio 90% or more, (practically complete withering)) | 0 (weed kill ratio 5% or less (practically no effect)) | 5 (weed kill ratio 90% or more, (practically complete withering)) | 5 (weed kill ratio 90% or more, (practically complete withering)) | 5 (weed kill ratio 90% or more, (practically complete withering)) | 0 (weed kill ratio 5% or less (practically no effect)) | M: fig-leafed goosefoot, weedkilling efficacy grade (fig-leafed goosefoot): 3 (weed kill ratio 40% or more, less than 70%)
